Paper PMC3118037 (International journal for parasitology, 2011)

Assays:
[1] = system: dispersed schistosome muscle fibres
[2] = system: dispersed schistosome muscle fibres; settings: ref Day et al., 1997; cited from earlier work

Substance | activity in isolated muscle cell assays [1] | effect on individual / dispersed schistosome muscle cells (fibres) [2]
GFVRIamide | lacked measurable activity | 
YIRF-OH |  | lack of effect
YIRFamide |  | potent myoexcitatory effect
